Reference: patent publication EP0239528A1, “13-Beta-carbamoyloxy-milbemicyne derivatives for fighting harmful animal and plant parasites” (CIBA-GEIGY AG, priority 1986, dated 1987)
Read-outs that look alike come from different tables or passages of the source.

How the values were obtained:
[1] = test system: L₁-Larven von Lucilia sericata; assay: B-3 action against L1 larvae in larval culture medium; assay type: in vivo; conditions: 96 h, reduced concentration of 100 ppm, after 4 days, read-out: Wirkung (Mortalitätsrate)
Experimental: B-3. Wirkung gegen L₁-Larven von Lucilia sericata
1 ml einer wässrigen Suspension der zu prüfenden Aktivsubstanz werden so mit 3 ml eines speziellen Larvenzuchtmediums bei ca. 50°C vermischt, dass ein Homogenisat von wahlweise 250 ppm oder […] Wirkstoffgehalt entsteht. In jede Reagenzglas-Probe werden ca. 30 Lucilia-Larven (L₁) eingesetzt. Nach 4 Tagen wird die Mortalitätsrate bestimmt. Die Verbindungen aus den Herstellungsbeispielen zeigen bei 250 ppm eine Wirkung von 100 %, wobei die Verbindungen aus den Herstellungsbeispiele, wie z.B. E8, E6, E2, E14, E22, E28, E26, E30, E32, E34, E36 und E38, diese Wirkung auch noch bei der reduzierten Wirkstoffkonzentration von 100 ppm erzielten.

Meloidogyne incognita = assay: B-8 soil nematicidal action on tomato plants, root-knot index; assay type: in vivo; conditions: 0,002 % active substance relative to soil volume, after 4 weeks; result in words
Experimental: B-8. Bodennematizide Wirkung gegen Meloidogyne incognita
Eier von Meloidogyne incognita werden in Sand eingemischt. Dieses Gemisch wird dann in 200 ml fassende Tontöpfe eingebracht (5000 Eier pro Topf). Am gleichen Tag wird pro Topf eine 3 Wochen alte Tomatenpflanze gepflanzt und der formulierte Wirkstoffe mittels Druckapplikation in die Töpfe hineingegeben (0,002 % Aktivsubstanz bezogen auf das Bodenvolumen). Die eingetopften Pflanzen werden nun bei einer Temperatur von 26±1°C und einer relativen Luftfeuchtigkeit von 60 % in einem Gewächshaus aufgestellt. Nach Ablauf von 4 Wochen erfolgt eine Evaluierung durch Untersuchung der Pflanzen auf Wurzelgallbildung nach dem sogenannten Wurzelgall-Index ("Knot Index").

Spodoptera littoralis = assay: B-1 insecticidal stomach-poison action on sprayed cotton plants; assay type: in vivo; conditions: 12,5 ppm active ingredient, after 24 hours, L1 larvae on cotton plants
Experimental: B-1. Insektizide Frassgift-Wirkung bei Spodoptera littoralis
Eingetopfe Baumwollpflanzen im 5-Blatt-Stadium werden mit einer acetonisch/wässrigen Versuchslösung besprüht, die 3, 12,5 oder 50 ppm der zu prüfenden Verbindung enthält.
Nach dem Antrocknen des Belags werden die Pflanzen mit ca. 30 Larven (L₁-Stadium) von Spodoptera littoralis besetzt. Pro Versuchsverbindung und pro Test-Spezies verwendet man zwei Pflanzen. Der Versuch wird bei ca. 24°C und 60 % relativer Luftfeuchtigkeit durchgeführt Auswertungen und Zwischenauswertungen auf moribunde Tiere, Wachstum und Larven und Frasschäden erfolgen nach 24 Stunden, 48 Stunden und 72 Stunden.

[2] = test system: Haemonchus concortus und Trichostrongylus colubriformis; assay: B-5 test on nematode-infected sheep, worm egg count in faeces; assay type: in vivo, Schafen; conditions: single dose 0,5 mg/kg by stomach tube or intraruminal injection
Experimental: B-5. Versuch an mit Nematoden (Haemonchus concortus und Trichostrongylus colubriformis) infizierten Schafen
Der Wirkstoff wird als Suspension formuliert mit einer Magensonde oder durch Injektion in den Pansen eines Schafes gegeben, das mit Haemonchus concortus und Trychostrongylus colubriformis künstlich infiziert worden ist. Pro Dosis werden 1 bis 3 Tiere verwendet. Jedes Schaf wird nur einmal mit einer einzigen Dosis behandelt, und zwar wahlweise mit 1 mg oder 0,5 mg/kg Körpergewicht. Die Evaluierung erfolgt durch Vergleich der Anzahl der vor und nach Behandlung im Kot der Schafe ausgeschiedenen Wurmeier.
Gleichzeitig und gleichartig infizierte aber unbehandelte Schafe dienen als Kontrolle. […] Verbindungen aus den Herstellungsbeispielen, wie. z.B. E4, E8, E14, E18, E30 bis E32, E 34 und E36, bewirkten dies auch noch bei 0,5 mg/kg.

Aedes aegypti = assay: B-7 larvicidal action in water; assay type: in vivo; conditions: 3,3 ppm, after one day
Experimental: B-7. Larvizidwirkung gegen Aedes aegypti
Auf die Oberfläche von 150 ml Wasser, das sich in einem Behälter befindet, wird soviel einer 0,1 %igen acetonischen Lösung des Wirkstoffes pipettiert, dass Konzentrationen von wahlweise 10 ppm, 3,3 ppm und 1,6 ppm erhalten werden. Nach Verdunsten des Acetons wird der Behälter mit ca. 30-40 3 Tage alten Aedes-Larven beschickt. Nach 1, 2 und 5 Tagen wird die Mortalität geprüft.

Dermanyssus gallinae = assay: B-4 miticidal action, wetting test in glass container; assay type: in vivo; conditions: 72 h, observed for three days, read-out: Wirkung (Mortalität)
Experimental: B-4. Milbizide Wirkung gegen Dermanyssus gallinae
2 bis 3 ml einer Testlösung (100, 10, 1 und 0,1 ppm Aktivsubstanz) werden in einem nach oben offenen Glasbehälter gegeben und ca. 200 Milben in unterschiedlichen Entwicklungstadien in diesen Behälter eingesetzt. Der Glasbehälter wird mit einem Wattebausch verschlossen und 10 Minuten gleichmässig, bis zur vollständigen Benetzung der Milben geschüttelt. Danach wird der Behälter umgekehrt hingestellt, bis die überschüssige Testlösung von der Watte aufgesogen ist. Der Behälter wird erneut gekehrt und die behandelten Zecken zur Evaluierung der Wirksamkeit der Testsubstanzen drei Tage unter Laborbedingungen beobachtet, wobei die Mortalität als Massstab für Wirksamkeit herangezogen wird.

Aphis craccivora = assay: B-6 contact action on infested pea seedlings; assay type: in vivo; conditions: for mortality at 25 ppm: Aphis craccivora, 72 h, read-out: Abtötung
Source text: B-6. Kontaktwirkung auf Aphis craccivora
Erbsenkeimlinge, die mit sämtlichen Entwicklungsstadien der Laus infiziert sind, werden mit einer aus einem Emulsionskonzentrat hergestellten Wirkstofflösung besprüht, die wahlweise 50 ppm, 25 ppm oder 12,5 ppm Wirkstoff enthält. Nach 3 Tagen wird auf mehr als 80 % tote bzw. abgefallene Blattläuse ausgewertet. Nur bei dieser Wirkungshöhe wird ein Präparat als wirksam eingestuft.

[3] = test system: OP-sensible Tetranychus urticae; assay: B-2 action against plant-damaging acarids on bean plants; assay type: in vivo; conditions: 1,6 ppm active ingredient, evaluation after seven days
Source text: B-2. Wirkung gegen pflanzenschädigende Akariden OP-sensible Tetranychus urticae
Die Primärblätter von Bohnenpflanzen (Phaseolus vulgaris) werden 16 Stunden vor dem Versuch mit einem durch T. urticae infestierten, aus einer Massenzucht stammenden Blattstück belegt. Die so mit allen Milben-Stadien infestierten Pflanzen werden nach Entfernung des Blattstücks mit einer Versuchslösung bis zur Tropfnässe besprüht, die wahlweise 0,4 ppm oder 1,6 ppm der zu prüfenden Verbindung enthält. Die Temperatur in der Gewächshauskabine beträgt ca. 25°C.
Nach sieben Tagen wird unter dem Binokular auf Prozentsatz mobiler Stadien (Adulte und Nymphen) und auf vorhandene Eier ausgewertet.

CCC1OC2(CCC1C)CC1CC(CC=C(C)C(OC(=O)NC)C(C)C=CC=C3COC4C(O)C(C)=CC(C(=O)O1)C34O)O2 (stereo not drawn) [Beispiel E2, 13β-N-Methyl-carbamoyloxy-milbemycin A₄]
mortality at 100 ppm [1]: 100% | Wirksamkeit gegen Meloidogyne incognita (Reduktion der Wurzelgallbildung) (Meloidogyne incognita): besonders aktiv

CC[C@H]1O[C@]2(CC[C@@H]1C)C[C@@H]1C[C@@H](C/C=C(\C)[C@H](OC(=O)NC(C)(C)C)[C@@H](C)/C=C/C=C3\CO[C@@H]4[C@H](O)C(C)=C[C@@H](C(=O)O1)[C@]34O)O2 [Beispiel E4, 13β-N-tert.-Butyl-carbamoyloxy-milbemycin A₄]
Abtötung (Spodoptera littoralis): vollständige Abtötung | Nematodenbefall (Reduktion der Wurmeier im Kot) [2]: komplette Reduktion der Wurmeier im Kot | Abtötung sämtlicher Larven (Aedes aegypti): vollständige Abtötung

CCC1OC2(CCC1C)CC1CC(CC=C(C)C(OC(=O)Nc3ccccc3)C(C)C=CC=C3COC4C(O)C(C)=CC(C(=O)O1)C34O)O2 (stereo not drawn) [Beispiel E6, 13β-N-Phenyl-carbamoyloxy-milbemycin A₄]
Abtötung (Spodoptera littoralis): vollständige Abtötung | mortality at 100 ppm [1]: 100%

CCC1OC2(CCC1C)CC1CC(CC=C(C)C(OC(=O)N(C(C)C)C(C)C)C(C)C=CC=C3COC4C(O)C(C)=CC(C(=O)O1)C34O)O2 (stereo not drawn) [Beispiel E8, 13β-N,N-Diisopropyl-carbamoyloxy-milbemycin A₄]
mortality at 100 ppm [1]: 100% | mortality at 10 ppm (Dermanyssus gallinae): 100% | Nematodenbefall (Reduktion der Wurmeier im Kot) [2]: komplette Reduktion der Wurmeier im Kot | mortality at 25 ppm (Aphis craccivora; 25 ppm, after 3 days): 100% | Abtötung sämtlicher Larven (Aedes aegypti): vollständige Abtötung

CNC(=O)OC1C(C)=CCC2CC(CC3(CCC(C)C(C(C)C)O3)O2)OC(=O)C2C=C(C)C(O)C3OCC(=CC=CC1C)C23O (stereo not drawn) [Beispiel E10, 13β-N-Methylcarbamoyloxy-milbemycin D]
Abtötung (Spodoptera littoralis): vollständige Abtötung | mortality at 10 ppm (Dermanyssus gallinae): 100% | mortality at 25 ppm (Aphis craccivora): 100% | Wirksamkeit gegen Meloidogyne incognita (Reduktion der Wurzelgallbildung) (Meloidogyne incognita): besonders aktiv

CCC1OC2(CCC1C)CC1CC(CC=C(C)C(OC(=O)NC3CCCCC3)C(C)C=CC=C3COC4C(O)C(C)=CC(C(=O)O1)C34O)O2 (stereo not drawn) [Beispiel E12, 13β-N-Cyclohexylcarbamoyloxy-milbemycin A₄]
Abtötung (Spodoptera littoralis): vollständige Abtötung | Abtötung (Aphis craccivora; 25 ppm, after 3 days): 100%

CCC1OC2(CCC1C)CC1CC(CC=C(C)C(OC(=O)Nc3ccc(Br)cc3)C(C)C=CC=C3COC4C(O)C(C)=CC(C(=O)O1)C34O)O2 (stereo not drawn) [Beispiel E14, 13β-N-(4-Bromphenyl)carbamoyloxy-milbemycin A₄]
Abtötung (Spodoptera littoralis): vollständige Abtötung | mortality at 100 ppm [1]: 100% | Nematodenbefall (Reduktion der Wurmeier im Kot) [2]: komplette Reduktion der Wurmeier im Kot | mortality at 25 ppm (Aphis craccivora; 25 ppm, after 3 days): 100% | Abtötung sämtlicher Larven (Aedes aegypti): vollständige Abtötung

CC[C@H]1O[C@]2(CC[C@@H]1C)C[C@@H]1C[C@@H](C/C=C(\C)[C@H](OC(=O)N(C)C)[C@@H](C)/C=C/C=C3\CO[C@@H]4[C@H](O)C(C)=C[C@@H](C(=O)O1)[C@]34O)O2 [Beispiel E16, 13β-N,N-Dimethyl-carbamoyloyx-milbemycin A₄]
Abtötung (Spodoptera littoralis): vollständige Abtötung | Wirksamkeit gegen Meloidogyne incognita (Reduktion der Wurzelgallbildung) (Meloidogyne incognita): besonders aktiv

CCNC(=O)O[C@H]1/C(C)=C/C[C@@H]2C[C@@H](C[C@]3(CC[C@H](C)[C@@H](CC)O3)O2)OC(=O)[C@@H]2C=C(C)[C@@H](O)[C@H]3OC/C(=C\C=C\[C@@H]1C)[C@]32O [Beispiel E18, 13β-N-Ethyl-carbamoyloxy-milbemycin A₄]
Nematodenbefall (Reduktion der Wurmeier im Kot) [2]: komplette Reduktion der Wurmeier im Kot | Wirksamkeit gegen Meloidogyne incognita (Reduktion der Wurzelgallbildung) (Meloidogyne incognita): besonders aktiv

CC[C@H]1O[C@]2(CC[C@@H]1C)C[C@@H]1C[C@@H](C/C=C(\C)[C@H](OC(=O)Nc3ccc([N+](=O)[O-])cc3)[C@@H](C)/C=C/C=C3\CO[C@@H]4[C@H](O)C(C)=C[C@@H](C(=O)O1)[C@]34O)O2 [Beispiel E20, 13β-N-(4-Nitrophenyl)-carbamoyloxy-milbemycin A₄]
Abtötung [3]: vollständige Abtötung | Abtötung sämtlicher Larven (Aedes aegypti): vollständige Abtötung

CCC1OC2(CCC1C)CC1CC(CC=C(C)C(OC(=O)Nc3ccccc3C(F)(F)F)C(C)C=CC=C3COC4C(O)C(C)=CC(C(=O)O1)C34O)O2 (stereo not drawn) [Beispiel E22, 13β-N-(2-Trifluorphenyl)-carbamoyloxy-milbemycin A₄]
Abtötung (Spodoptera littoralis): vollständige Abtötung | Abtötung [3]: vollständige Abtötung | mortality at 100 ppm [1]: 100% | mortality at 25 ppm (Aphis craccivora; 25 ppm, after 3 days): 100% | Abtötung sämtlicher Larven (Aedes aegypti): vollständige Abtötung

CCC1OC2(CCC1C)CC1CC(CC=C(C)C(OC(=O)NC(C)C)C(C)C=CC=C3COC4C(O)C(C)=CC(C(=O)O1)C34O)O2 (stereo not drawn) [Beispiel E26, 13β-Isopropyl-carbamoyloxy-milbemycin A₄]
mortality at 100 ppm [1]: 100% | mortality at 10 ppm (Dermanyssus gallinae): 100%

CCC1OC2(CCC1C)CC1CC(CC=C(C)C(OC(=O)NCc3ccccc3)C(C)C=CC=C3COC4C(O)C(C)=CC(C(=O)O1)C34O)O2 (stereo not drawn) [Beispiel E28, 13β-N-Benzyl-carbamoyloxy-milbemycin A₄]
mortality at 100 ppm [1]: 100%

CCC1OC2(CCC1C)CC1CC(CC=C(C)C(OC(=O)NC(C)c3ccccc3)C(C)C=CC=C3COC4C(O)C(C)=CC(C(=O)O1)C34O)O2 [Beispiel E30, 13β-N-((S)-1-Phenylethyl)-carbamoyloxy-milbemycin A₄]
mortality at 100 ppm [1]: 100%

CCC1OC2(CCC1C)CC1CC(CC=C(C)C(OC(=O)Nc3ccccc3Br)C(C)C=CC=C3COC4C(O)C(C)=CC(C(=O)O1)C34O)O2 (stereo not drawn) [Beispiel E34, 13β-N-(2-Bromphenyl)-carbamoyloxy-milbemycin A₄]
mortality at 100 ppm [1]: 100% | Nematodenbefall (Reduktion der Wurmeier im Kot) [2]: komplette Reduktion der Wurmeier im Kot

CCc1ccccc1NC(=O)OC1C(C)=CCC2CC(CC3(CCC(C)C(CC)O3)O2)OC(=O)C2C=C(C)C(O)C3OCC(=CC=CC1C)C23O (stereo not drawn) [Beispiel E36, 13β-N-(2-Ethylphenyl)-carbamoyloxy-milbemycin A₄]
mortality at 100 ppm [1]: 100% | Nematodenbefall (Reduktion der Wurmeier im Kot) [2]: komplette Reduktion der Wurmeier im Kot

CCC1OC2(CCC1C)CC1CC(CC=C(C)C(OC(=O)Nc3ccccc3[N+](=O)[O-])C(C)C=CC=C3COC4C(O)C(C)=CC(C(=O)O1)C34O)O2 (stereo not shown) [Beispiel E38]
mortality at 100 ppm [1]: 100%
